Experimental data from PubChem BioAssay (NCI).
Where “and” joins values, the source holds several entries; their conditions need not be identical. Equal entries are not always repeated.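 48-hour exposure; five concentrations; linearly interpolated endpoints. GI50 = concentration required for 50% inhibition of growth. At the TGI there is no net growth.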

What was measured:
Assay in all cases: NCI anticancer screen, dose series, 48 h
SR leukemia = test system: SR leukemia
MALME-3M melanoma = test system: MALME-3M melanoma
TK-10 renal = test system: TK-10 renal
MOLT-4 leukemia = test system: MOLT-4 leukemia
NCI-H460 lung = test system: NCI-H460 lung
CCRF-CEM leukemia = test system: CCRF-CEM leukemia
KM12 colon = test system: KM12 colon
IGROV1 ovarian = test system: IGROV1 ovarian
OVCAR-3 ovarian = test system: OVCAR-3 ovarian
UACC-257 melanoma = test system: UACC-257 melanoma

Row | SMILES | TGI (SR leukemia) | GI50 (MALME-3M melanoma) | TGI (MALME-3M melanoma) | TGI (TK-10 renal) | TGI (MOLT-4 leukemia) | GI50 (NCI-H460 lung) | TGI (NCI-H460 lung) | TGI (CCRF-CEM leukemia) | GI50 (KM12 colon) | TGI (KM12 colon) | GI50 (IGROV1 ovarian) | TGI (IGROV1 ovarian) | TGI (OVCAR-3 ovarian) | GI50 (UACC-257 melanoma) | TGI (UACC-257 melanoma) | GI50 (SR leukemia) | GI50 (TK-10 renal) | GI50 (MOLT-4 leukemia) | GI50 (CCRF-CEM leukemia) | GI50 (OVCAR-3 ovarian)
1 | CC(C)(C#N)c1cc(C(=O)Nc2cc(Nc3ncccc3-c3ncnc4nc[nH]c34)ccc2F)cc(C(F)(F)F)c1 | > 10 µM | 0.0648 µM | 0.234 µM | > 4.17 µM | > 6.2 µM | 1.18 µM | > 3.27 µM | > 10 µM | 1.18 µM | > 2.09 µM | 0.521 µM | > 2.59 µM | > 4.1 µM | 0.112 µM | > 3.21 µM | – | – | – | – | –
2 | CCC(/C=C/c1ccccc1)=N\Nc1ccc(Cl)c(Cl)c1 | > 100 µM | – | 78.9 µM | > 100 µM | > 100 µM | – | > 100 µM | > 100 µM | – | > 100 µM | – | 37.5 µM | > 100 µM | – | > 100 µM | – | – | – | – | –
3 | Nc1c(C(=O)Nc2ccccc2)sc2nc3c(cc12)CN(Cc1ccccc1)CC3 | > 100 µM | 3.8 µM | > 100 µM | 54.7 µM | > 100 µM | 7.51 µM | > 100 µM | > 100 µM | 19.1 µM | > 100 µM | 37.8 µM | > 100 µM | > 100 µM | 52.8 µM | > 100 µM | 13.1 µM | 4.09 µM | 31.3 µM | 50.3 µM | 11.4 µM
4 | CC#CC1C(OC(=O)c2ccccc2)CCCC1(CI)N=[N+]=[N-] (stereo not drawn) | 55.2 µM | – | > 100 µM | > 100 µM | 44.4 µM | – | > 100 µM | > 100 µM | – | > 100 µM | – | > 100 µM | > 100 µM | – | > 100 µM | – | – | – | – | –
5 | CC(C)c1ccc(Nc2nccc(-c3cnn4ncccc34)n2)cc1 | > 25 µM | 1.04 µM | 4.01 µM | 3.17 µM | 4.19 µM | 0.496 µM | 4.95 µM | > 20.5 µM | 0.201 µM | 1.83 µM | 0.502 µM | > 19.5 µM | > 6.26 µM | 0.563 µM | 1.6 µM | 0.234 µM | 0.59 µM | 0.888 µM | 0.703 µM | 0.516 µM
6 | COc1ccc2c(c1)C(C)Cc1c(Cl)nc(C)nc1N2C (stereo not drawn) | > 100 µM | 12.4 µM | 37.8 µM | 38.8 µM | > 100 µM | 3.09 µM | 15.4 µM | > 100 µM | 0.789 µM | 11.4 µM | 4.41 µM | > 100 µM | 4.17 µM | 13.1 µM | 37.8 µM | 2.44 µM | 4.55 µM | 5.01 µM | 3.17 µM | 1.4 µM
7 | N#Cc1cc([N+](=O)[O-])ccc1NC(=O)/C(=N/N)C(C(=O)c1ccc(Cl)c(Cl)c1)C1OC(=O)c2ccccc21 (stereo not drawn) | > 100 µM | – | > 100 µM | – | > 100 µM | – | > 100 µM | > 100 µM | – | > 100 µM | – | > 100 µM | > 100 µM | – | > 100 µM | – | – | – | – | –
8 | CCCc1cc(=O)n2c(C(=O)Nc3ccccc3OC)c(C(=O)Nc3ccc(F)cc3)sc2n1 | 25.3 µM | 59.5 µM | > 160 µM | 64.3 µM | 57.3 µM | 39.8 µM | > 160 µM | 59 µM | 49.8 µM | > 160 µM | 21.5 µM | 46.2 µM | 34.1 µM | 20.2 µM | 60.2 µM | 4.57 µM | 26 µM | 19.8 µM | 24.7 µM | 9.56 µM
9 | CN(C)c1ccc(C(=C2C=CC(=[N+](C)C)C=C2)c2ccc(N(C)C)cc2)cc1 | 0.672 µM and 3.2 µM | 0.216 µM | 0.879 µM and 0.773 µM | 0.864 µM | 2.41 µM and 0.543 µM | – | 1.55 µM | 0.832 µM | 0.0781 µM | 0.397 µM and 0.93 µM | 0.264 µM | 2.26 µM and 1.4 µM | – | 0.228 µM | 0.763 µM and 0.416 µM | 0.0591 µM | 0.162 µM | 0.297 µM | – | –
10 | CC(=O)Nc1ccc(/C=C/C(=O)c2sc(-c3nc(C)c(C(=O)/C=C/c4ccc(NC(C)=O)cc4)s3)nc2C)cc1 | > 100 µM | – | > 100 µM | > 100 µM | > 100 µM | – | > 100 µM | > 100 µM | – | > 100 µM | – | > 100 µM | > 100 µM | – | > 100 µM | – | – | – | – | –
11 | COC(=O)C1=C(O)c2cc3c(cc2[C@H](c2cc(OC)c(OC)c(OC)c2)C1C(=O)OC)OCO3 (stereo partly drawn) | > 100 µM | – | 87.3 µM | 89.5 µM | > 100 µM | – | > 100 µM | > 100 µM | – | > 100 µM | – | > 100 µM | 92.4 µM | – | > 100 µM | – | – | – | – | –
12 | COc1cc(C2C3=C(COC3=O)Nc3cc4c(cc32)CCC4)cc2c1OCO2 (stereo not drawn) | > 34.5 µM | 19.1 µM | 74.6 µM | 32.4 µM | 15.6 µM | 0.0394 µM | 6.18 µM | 14.6 µM | 0.0305 µM | 0.12 µM | 0.0617 µM | 17.1 µM | 0.047 µM | 1.13 µM | 63.3 µM | 0.0453 µM | 10.1 µM | 0.0496 µM | 0.0452 µM | 0.0231 µM
13 | CSc1ccccc1C#Cc1ccccc1C#CCCCCO | 17.5 µM | 15.2 µM | 36.5 µM | 30.4 µM | 29.3 µM | 8.64 µM | 22.2 µM | 46.5 µM | 3.39 µM | 16.9 µM | 14 µM | 27.5 µM | 28.7 µM | 18.5 µM | 34.2 µM | 3.54 µM | 13.7 µM | 7.32 µM | 10.3 µM | 14.7 µM
14 | COc1cc2c3c(n(C)c(=O)c2cc1OC)-c1cc2c(cc1/C3=C\C(N)CN)OCO2 (stereo not drawn) | – | 0.284 µM | 4.04 µM | 26.5 µM | > 40.7 µM | 1.5 µM | 7.58 µM | 3.63 µM | 2.39 µM | 28.3 µM | 0.791 µM | – | 6.88 µM | 6.38 µM | 41.4 µM | 0.219 µM | 1.45 µM | 0.125 µM | 0.333 µM | 1.92 µM
15 | Nc1ccc(-c2ccc(N)cc2I)c(I)c1 | 39.8 µM | 11.9 µM | 36.7 µM | 80.7 µM | 43.6 µM | 19.4 µM | 39.3 µM | 43.3 µM | 14.5 µM | 36.5 µM | 13.9 µM | 56.1 µM | 35.3 µM | 21.5 µM | 53.8 µM | 5.1 µM | 22.8 µM | 9.89 µM | 8.14 µM | 16.6 µM
